The text below walks through data of patent US20250170112A1, “ADENOSINE LIGANDS FOR THE TREATMENT OF NEUROLOGICAL DISORDERS” (Lucy Therapeutics, Inc., priority 2022, published 2025).

In experiment [1] the target is T1, human Adenosine A1 receptor (Homo sapiens, UniProt P30542).
T1 construct: host or cells: CHO-K1
T1 sequence (P30542 1-326): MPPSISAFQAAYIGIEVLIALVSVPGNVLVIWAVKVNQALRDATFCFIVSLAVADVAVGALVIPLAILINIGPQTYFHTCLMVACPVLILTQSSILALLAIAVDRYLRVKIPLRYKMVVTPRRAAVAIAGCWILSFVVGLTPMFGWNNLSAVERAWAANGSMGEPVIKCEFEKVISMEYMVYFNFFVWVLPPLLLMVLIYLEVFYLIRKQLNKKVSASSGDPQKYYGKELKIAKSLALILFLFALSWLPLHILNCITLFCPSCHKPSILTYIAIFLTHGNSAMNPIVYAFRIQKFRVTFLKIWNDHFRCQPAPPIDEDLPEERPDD
The experiment in a line: GTPγS scintillation proximity assay, agonist testing. It is filed as biochemical. As to conditions: agonist activity; membrane extracts of CHO-K1 cells expressing recombinant human A1; read-out: A1AR EC50. The method, boiled down:
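Agonist-stimulated [35S]GTPγS binding to membranes of CHO-K1 cells expressing recombinant human A1 receptor, in 20 mM HEPES pH 7.4, 100 mM NaCl, 10 μg/mL saponin, with receptor-optimized MgCl2 and GDP. GTPγ[35S] 0.1 nM final with WGA SPA beads; 1 h at room temperature, then scintillation counting.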

Experiment [2] concerns the target T2, human A2B (Homo sapiens, UniProt P29275).
T2 construct: expressed in transfected cells; host or cells: HEK293
T2 sequence (P29275 1-332): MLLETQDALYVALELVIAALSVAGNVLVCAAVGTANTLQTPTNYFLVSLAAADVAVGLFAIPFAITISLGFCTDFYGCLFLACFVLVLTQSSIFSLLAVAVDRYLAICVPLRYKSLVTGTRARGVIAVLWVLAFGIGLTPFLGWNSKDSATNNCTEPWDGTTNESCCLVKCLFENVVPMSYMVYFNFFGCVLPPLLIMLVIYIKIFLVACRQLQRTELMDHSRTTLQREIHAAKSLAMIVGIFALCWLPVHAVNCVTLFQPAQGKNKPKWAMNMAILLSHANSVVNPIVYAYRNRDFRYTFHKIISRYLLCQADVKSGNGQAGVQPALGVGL
The experiment in a line: cAMP HTRF assay for Gs coupled receptor, agonist test. Particulars: agonist activity; HEK293 cells expressing recombinant human A2B; read-out: A2BAR EC50. Type of experiment: cell-based. The method, boiled down: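 Recombinant cells were incubated 30 min at room temperature with increasing agonist concentrations. Lysis buffer with cAMP-d2 and anti-cAMP cryptate was added, with 1 h at room temperature before the HTRF fluorescence ratio was read. Reference compounds were run in parallel.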
A general note: In TR-FRET formats the signal depends on donor and acceptor labels being close together.

As a reminder, the EC50 is the concentration that produces a half-maximal response. In the case of `CNC(=O)CSc1nc(N2CCCC2)c(C#N)c(-c2ccc(OCCOC)cc2)c1C#N` [Compound 79], the EC50 in experiment [1] came out at 1790 nM; in experiment [2] it was 45 nM.

As for `N#Cc1c(N)nc(SCC2CCOCC2)c(C#N)c1-c1ccc(OC2COC2)cc1` [Compound 305], the 50% effective concentration (EC50) is 140 nM in experiment [1] and 1120 nM in experiment [2].

For `N#Cc1c(N)nc(SCC2CCCOC2)c(C#N)c1-c1ccc(OC2COC2)cc1` (stereo not shown) [Compound 9], the EC50 came to 884 nM in experiment [1] and 2490 nM in experiment [2].

With `N#Cc1c(N)nc(SCC2CCOC2)c(C#N)c1-c1ccc(OC2CCCOC2)cc1` (stereo not shown) [Compound 326], the EC50 in experiment [1] and in experiment [2] was over 10000 nM throughout.

For the compound `N#Cc1c(N)nc(SCC2COC2)c(C#N)c1-c1ccc(OCCO)cc1` [Compound 319], the EC50 in experiment [1] was 1.53 nM; in experiment [2], 401 nM.

As to `N#Cc1c(OCC2COC2)nc(N2CCC2)c(C#N)c1-c1ccc(OC2COC2)cc1` [Compound 287, 2-(azetidin-1-yl)-6-(oxetan-3-ylmethoxy)-4-(4-(oxetan-3-yloxy)phenyl)pyridine-3,5-dicarbonitrile], the EC50 in experiment [1] was 807 nM; in experiment [2] it was over 10000 nM.

Take `N#Cc1c(N)nc(SCc2cccnc2)c(C#N)c1-c1ccc(OC(F)(F)CO)cc1` [Compound 309]: the half-maximal effective concentration (EC50) came out at 6.48 nM in experiment [1] and 0.962 nM in experiment [2].

In the case of `COCCOc1ccc(-c2c(C#N)cnc(SCc3cccnc3)c2C#N)cc1` [Compound 83, 4-[4-(2-Methoxyethoxy)phenyl]-2-(3-pyridylmethylthio)-pyridine-3,5-dicarbonitrile], the values for the EC50 in experiment [1] and in experiment [2] were 282 nM and over 10000 nM, respectively.

`N#Cc1c(N)nc(SCc2nccc3[nH]ccc23)c(C#N)c1-c1ccc(OCCO)cc1` [Compound 229]: the EC50 was over 10000 nM in experiment [1] and 11 nM in experiment [2].

For the compound `COCCOc1ccc(-c2c(C#N)c(C)nc(N)c2C#N)cc1` [Compound 39, 2-Amino-4-[4-(2-methoxyethoxy)phenyl]-6-methyl-pyridine-3,5-dicarbonitrile], the EC50 in experiment [1] was 862 nM; in experiment [2], over 10000 nM.

Take `COCCOc1ccc(-c2c(C#N)c(N)nc(SCc3cccnn3)c2C#N)cc1` [Compound 195]: the figures for the EC50 in experiment [1] and in experiment [2] were 9.7 nM and over 10000 nM, respectively.

Consider `COCCOc1ccc(-c2c(C#N)c(N)nc(S[C@H](C)c3ccccn3)c2C#N)cc1` [Compound 243], for which the EC50 in experiment [1] was over 10000 nM; in experiment [2] it was 6450 nM.

On to `N#Cc1c(N)nc(SCc2cccnn2)c(C#N)c1-c1ccc(OCCOC(F)F)cc1` [Compound 237], for which the values for the EC50 in experiment [1] and in experiment [2] were 1.62 nM and 5360 nM, respectively.

Regarding `N#Cc1c(SCc2cnccn2)nc(N2CCC2)c(C#N)c1-c1ccc(OCCO)cc1` [Compound 6], the EC50 is 586 nM in experiment [1] and 213 nM in experiment [2].

Consider `N#Cc1c(N)nc(SCC2COC2)c(C#N)c1-c1ccc(OC2CCCOC2)cc1` (stereo not shown) [Compound 308], for which the values for the concentration giving a half-maximal response (EC50) in experiment [1] and in experiment [2] were over 10000 nM and 5570 nM, respectively.

In the case of `N#Cc1c(SCc2cncnc2)nc(N2CCC2)c(C#N)c1-c1ccc(OCCO)cc1` [Compound 23], the EC50 is 100 nM in experiment [1] and 420 nM in experiment [2].

On to `N#Cc1cnc(SCc2cccnc2)c(C#N)c1-c1ccc(OC2COC2)cc1` [Compound 18], for which the EC50 stood at 69.5 nM in experiment [1] and 299 nM in experiment [2].

Turning to `COCCOc1ccc(-c2c(C#N)c(N)nc(S[C@@H](C)c3cccnc3)c2C#N)cc1` [Compound 247], the EC50 is 1.19 nM in experiment [1] and over 10000 nM in experiment [2].

Consider `COCCOc1ccc(-c2c(C#N)c(N)nc(SCc3ccc4c(c3)OCC4)c2C#N)cc1` [Compound 16], for which the concentration for a half-maximal effect (EC50) in experiment [1] is 7600 nM; in experiment [2], over 10000 nM.

On to `N#Cc1c(N)nc(SCC2COCOC2)c(C#N)c1-c1ccc(OC2COC2)cc1` [Compound 297], for which the 50% effective concentration (EC50) in experiment [1] is 1100 nM; in experiment [2] it was over 10000 nM.

For `N#Cc1c(N)nc(SCC2COC2)c(C#N)c1-c1ccc(OC(F)(F)CO)cc1` [Compound 311, 2-Amino-4-[4-(1,1-difluoro-2-hydroxy-ethoxy)phenyl]-6-(oxetan-3-ylmethylsulfanyl)pyridine-3,5-dicarbonitrile], the EC50 in experiment [1] was 7.18 nM; in experiment [2] it was over 10000 nM.

`N#Cc1c(SCc2cccnc2)nc(N2CC(F)C2)c(C#N)c1-c1ccc(OCCOC(F)F)cc1` [Compound 266]: the results for the EC50 in experiment [1] and in experiment [2] were 1070 nM and over 10000 nM, respectively.

Consider `N#Cc1c(SCc2cccnn2)nc(N2CC(F)C2)c(C#N)c1-c1ccc(OCCOC(F)F)cc1` [Compound 241], for which the EC50 in experiment [1] is 73.2 nM; in experiment [2], over 10000 nM.

Regarding `N#Cc1c(N)nc(SCc2cccc3[nH]ncc23)c(C#N)c1-c1ccc(OCCO)cc1` [Compound 15], the EC50 stood at 1050 nM in experiment [1] and 142 nM in experiment [2].

`CN(C)C(=O)CSc1nc(N)c(C#N)c(-c2ccc(OCCO)cc2)c1C#N` [Compound 138]: the EC50 was determined as 891 nM in experiment [1] and 2460 nM in experiment [2].

`COCCOc1ccc(-c2c(C#N)c(N)nc(OCc3cccnc3)c2C#N)cc1` [Compound 193]: the concentration for a half-maximal effect (EC50) is 49 nM in experiment [1] and over 10000 nM in experiment [2].

On to `COCCOc1ccc(-c2c(C#N)c(OC)nc(SCc3cccnc3)c2C#N)cc1` [Compound 283], for which the concentration giving a half-maximal response (EC50) in experiment [1] and in experiment [2] was over 10000 nM in each case.

`COCCOc1ccc(-c2c(C#N)c(N)nc(SCc3cncc4[nH]ccc34)c2C#N)cc1` [Compound 216]: the EC50 in experiment [1] and in experiment [2] was over 10000 nM in each case.

Take `COCCOc1ccc(-c2c(C#N)c(N)nc(CCc3cccnc3)c2C#N)cc1` [Compound 191]: the EC50 in experiment [1] was 567 nM; in experiment [2], over 10000 nM.

As for `N#Cc1c(N)nc(SCc2cccnc2)c(C#N)c1-c1ccc(OCCOC(F)F)cc1` [Compound 40], the 50% effective concentration (EC50) in experiment [1] was 21.6 nM; in experiment [2], over 10000 nM.

Regarding `N#Cc1c(N)nc(CCc2cccnc2)c(C#N)c1-c1ccc(OCCO)cc1` [Compound 125], the EC50 in experiment [1] is over 10000 nM; in experiment [2] it was 468 nM.

On to `N#Cc1c(N)nc(SCc2nc3cc(Cl)ccc3s2)c(C#N)c1-c1ccc(OCCO)cc1` [Compound 208], for which the EC50 in experiment [1] came to 500 nM; in experiment [2], 98 nM.

Take `N#Cc1c(N)nc(SC2CCOCC2)c(C#N)c1-c1ccc(OCCO)cc1` [Compound 32]: the half-maximal effective concentration (EC50) is 890 nM in experiment [1] and over 10000 nM in experiment [2].

As for `N#Cc1c(SCC2COC2)nc(N2CCC2)c(C#N)c1-c1ccc(OCCO)cc1` [Compound 63, 2-(Azetidin-1-yl)-4-[4-(2-hydroxyethoxy)phenyl]-6-(oxetan-3-ylmethylsulfanyl)pyridine-3,5-dicarbonitrile], the results for the EC50 in experiment [1] and in experiment [2] were 91 nM and 2960 nM, respectively.

`N#Cc1c(SCc2cccnc2)nc(N2CC(F)(F)C2)c(C#N)c1-c1ccc(OCCOC(F)F)cc1` [Compound 264]: the concentration giving a half-maximal response (EC50) in experiment [1] and in experiment [2] was over 10000 nM throughout.

Regarding `CN(C)c1nc(SCc2cccnc2)c(C#N)c(-c2ccc(OC(F)(F)CO)cc2)c1C#N` [Compound 254], the EC50 in experiment [1] and in experiment [2] was over 10000 nM each time.

For the compound `N#Cc1c(N)nc(SCC2COC2)c(C#N)c1-c1ccc(OC(F)(F)COC(F)F)cc1` [Compound 289, 2-Amino-4-(4-(2-(difluoromethoxy)-1,1-difluoroethoxy)phenyl)-6-((oxetan-3-ylmethyl)thio)pyridine-3,5-dicarbonitrile], the EC50 in experiment [1] and in experiment [2] was over 10000 nM each time.

As to `N#Cc1c(N)nc(OCC2CCCCO2)c(C#N)c1-c1ccc(OC2COC2)cc1` (stereo not shown) [Compound 299], the EC50 in experiment [1] and in experiment [2] was over 10000 nM throughout.

For the compound `COCCOc1ccc(-c2c(C#N)c(N)nc(SCc3nccc4[nH]ccc34)c2C#N)cc1` [Compound 217], the EC50 in experiment [1] and in experiment [2] was over 10000 nM throughout.

On to `N#Cc1c(SCc2cccnc2)nc(N2CC(F)C2)c(C#N)c1-c1ccc(OC2COC2)cc1` [Compound 271], for which the EC50 in experiment [1] is 30.3 nM; in experiment [2], 116 nM.

For `COCCOc1ccc(-c2c(C#N)c(SCc3cccnn3)nc(N3CCC3)c2C#N)cc1` [Compound 12], the EC50 in experiment [1] is 483 nM; in experiment [2], over 10000 nM.

Turning to `COCCOc1ccc(-c2c(C#N)c(C)nc(SCCC(F)(F)F)c2C#N)cc1` [Compound 47], the EC50 in experiment [1] is over 10000 nM; in experiment [2], 36.1 nM.

In the case of `COCCOc1ccc(-c2c(C#N)c(SCc3cccnn3)nc(C3CC3)c2C#N)cc1` [Compound 233], the EC50 in experiment [1] and in experiment [2] was over 10000 nM in each case.

For the compound `CC1(CSc2nc(N)c(C#N)c(-c3ccc(OC4COC4)cc3)c2C#N)COC1` [Compound 226], the EC50 in experiment [1] was 22 nM; in experiment [2], over 10000 nM.
